# Measured values taken from ChEMBL document CHEMBL3885881, “DrugMatrix”.
# Species on record: Rattus norvegicus
# Assay: DrugMatrix - Regimen: Daily Repeat
# Assay type: toxicity, organism-based, Sprague-Dawley
# Set-up: regimen Daily Repeat, gender Male, age 6-8 weeks
# Conditions: in vivo, iv, 30 mg/kg, dose level High, vehicle 100 % SALINE; for ABSOLUTE BASOPHIL / ABSOLUTE EOSINOPHIL / ABSOLUTE LYMPHOCYTE / ABSOLUTE MONOCYTE / ABSOLUTE SEGMENTED NEUTROPHIL / BASOPHIL / EOSINOPHIL / ERYTHROCYTE COUNT / HEMATOCRIT / HEMOGLOBIN / LEUKOCYTE COUNT / LYMPHOCYTE / MEAN CORPUSCULAR HEMOGLOBIN / MEAN CORPUSCULAR HEMOGLOBIN CONCENTRATION / MEAN CORPUSCULAR VOLUME / MONOCYTE / NEUTROPHIL / NUCLEATED RED BLOOD CELLS / PLATELET COUNT: tissue Blood; for ALANINE AMINOTRANSFERASE / ALBUMIN / ALKALINE PHOSPHATASE / ASPARTATE AMINOTRANSFERASE / BLOOD UREA NITROGEN / CARBON DIOXIDE / CHLORIDE / CHOLESTEROL / CREATINE PHOSPHOKINASE / CREATININE / GLUCOSE / LACTATE DEHYDROGENASE / LIPASE / PHOSPHORUS / POTASSIUM / SODIUM / TOTAL BILIRUBIN / TOTAL PROTEIN / URIC ACID: tissue Plasma
structure (smiles),measurement,setting,value
CNC1(c2ccccc2Cl)CCCCC1=O (stereo unspecified) [KETAMINE],ABSOLUTE BASOPHIL,"72 h, time 3 day",0 CELLS/uL
same,ABSOLUTE EOSINOPHIL,"72 h, time 3 day",0 CELLS/uL
same,ABSOLUTE LYMPHOCYTE,"72 h, time 3 day",14382.67 CELLS/uL
same,ABSOLUTE MONOCYTE,"72 h, time 3 day",155.33 CELLS/uL
same,ABSOLUTE SEGMENTED NEUTROPHIL,"72 h, time 3 day",1995.33 CELLS/uL
same,BASOPHIL,"72 h, time 3 day",0%
same,EOSINOPHIL,"72 h, time 3 day",0%
same,ERYTHROCYTE COUNT,"72 h, time 3 day",5.41 x10E6/uL
same,HEMATOCRIT,"72 h, time 3 day",34.6%
same,HEMOGLOBIN,"72 h, time 3 day",13.7 G/DL
same,LEUKOCYTE COUNT,"72 h, time 3 day",16.53 x10E3/uL
same,LYMPHOCYTE,"72 h, time 3 day",87.33%
same,MEAN CORPUSCULAR HEMOGLOBIN,"72 h, time 3 day",25.3 pg
same,MEAN CORPUSCULAR HEMOGLOBIN CONCENTRATION,"72 h, time 3 day",39.6 G/DL
same,MEAN CORPUSCULAR VOLUME,"72 h, time 3 day",63.93 fL
same,MONOCYTE,"72 h, time 3 day",1%
same,NEUTROPHIL,"72 h, time 3 day",11.67%
same,NUCLEATED RED BLOOD CELLS,"72 h, time 3 day",0 /100WBC
same,PLATELET COUNT,"72 h, time 3 day",1095 x10E3/uL
same,ALANINE AMINOTRANSFERASE,"72 h, time 3 day",62.67 u/L
same,ALBUMIN,"72 h, time 3 day",4.23 G/DL
same,ALKALINE PHOSPHATASE,"72 h, time 3 day",372.33 u/L
same,ASPARTATE AMINOTRANSFERASE,"72 h, time 3 day",96.67 u/L
same,BLOOD UREA NITROGEN,"72 h, time 3 day",17 mg/dL
same,CARBON DIOXIDE,"72 h, time 3 day",19 mmol/L
same,CHLORIDE,"72 h, time 3 day",101.67 MEQ/L
same,CHOLESTEROL,"72 h, time 3 day",72.67 mg/dL
same,CREATINE PHOSPHOKINASE,"72 h, time 3 day",366.67 u/L
same,CREATININE,"72 h, time 3 day",0.23 mg/dL
same,GLUCOSE,"72 h, time 3 day",202.67 mg/dL
same,LACTATE DEHYDROGENASE,"72 h, time 3 day",284.33 u/L
same,LIPASE,"72 h, time 3 day",10 u/L
same,PHOSPHORUS,"72 h, time 3 day",13.57 mg/dL
same,POTASSIUM,"72 h, time 3 day",5.66 MEQ/L
same,SODIUM,"72 h, time 3 day",144.1 MEQ/L
same,TOTAL BILIRUBIN,"72 h, time 3 day",0.2 mg/dL
same,TOTAL PROTEIN,"72 h, time 3 day",6 G/DL
same,URIC ACID,"72 h, time 3 day",2.03 mg/dL
same,ABSOLUTE BASOPHIL,"120 h, time 5 day",0 CELLS/uL
same,ABSOLUTE EOSINOPHIL,"120 h, time 5 day",79.33 CELLS/uL
same,ABSOLUTE LYMPHOCYTE,"120 h, time 5 day",16271.33 CELLS/uL
same,ABSOLUTE MONOCYTE,"120 h, time 5 day",278 CELLS/uL
same,ABSOLUTE SEGMENTED NEUTROPHIL,"120 h, time 5 day",1271.33 CELLS/uL
same,BASOPHIL,"120 h, time 5 day",0%
same,EOSINOPHIL,"120 h, time 5 day",0.33%
same,ERYTHROCYTE COUNT,"120 h, time 5 day",5.66 x10E6/uL
same,HEMATOCRIT,"120 h, time 5 day",35.67%
same,HEMOGLOBIN,"120 h, time 5 day",14 G/DL
same,LEUKOCYTE COUNT,"120 h, time 5 day",17.9 x10E3/uL
same,LYMPHOCYTE,"120 h, time 5 day",92%
same,MEAN CORPUSCULAR HEMOGLOBIN,"120 h, time 5 day",24.8 pg
same,MEAN CORPUSCULAR HEMOGLOBIN CONCENTRATION,"120 h, time 5 day",39.27 G/DL
same,MEAN CORPUSCULAR VOLUME,"120 h, time 5 day",63.03 fL
same,MONOCYTE,"120 h, time 5 day",1.33%
same,NEUTROPHIL,"120 h, time 5 day",6.33%
same,NUCLEATED RED BLOOD CELLS,"120 h, time 5 day",0 /100WBC
same,PLATELET COUNT,"120 h, time 5 day",1154.33 x10E3/uL
same,ALANINE AMINOTRANSFERASE,"120 h, time 5 day",51 u/L
same,ALBUMIN,"120 h, time 5 day",4.2 G/DL
same,ALKALINE PHOSPHATASE,"120 h, time 5 day",328.67 u/L
same,ASPARTATE AMINOTRANSFERASE,"120 h, time 5 day",76.67 u/L
same,BLOOD UREA NITROGEN,"120 h, time 5 day",16.33 mg/dL
same,CARBON DIOXIDE,"120 h, time 5 day",22.67 mmol/L
same,CHLORIDE,"120 h, time 5 day",105 MEQ/L
same,CHOLESTEROL,"120 h, time 5 day",69.67 mg/dL
same,CREATINE PHOSPHOKINASE,"120 h, time 5 day",264.33 u/L
same,CREATININE,"120 h, time 5 day",0.2 mg/dL
same,GLUCOSE,"120 h, time 5 day",179.33 mg/dL
same,LACTATE DEHYDROGENASE,"120 h, time 5 day",119.67 u/L
same,LIPASE,"120 h, time 5 day",8.67 u/L
same,PHOSPHORUS,"120 h, time 5 day",12.4 mg/dL
same,POTASSIUM,"120 h, time 5 day",6.35 MEQ/L
same,SODIUM,"120 h, time 5 day",146.23 MEQ/L
same,TOTAL BILIRUBIN,"120 h, time 5 day",0.17 mg/dL
same,TOTAL PROTEIN,"120 h, time 5 day",6.1 G/DL
same,URIC ACID,"120 h, time 5 day",1.3 mg/dL
